Results: patent publication US4396607A, “Muramyl peptide derivatives and pharmaceutical compositions” (priority 1978, dated 1983)

Assays:
[1] = system: bovine serum albumin (BSA); test: Adjuvant character in the aqueous phase (antibody titer by passive hemagglutination); type: in vivo, Swiss mice; details: mice, 0.5 mg BSA with 0.1 mg tested substance SC in isotonic saline, booster day 30, titer at the 36th day
Protocol: Groups of 8 Swiss mice aged two months received, by sub-cutaneous injection (SC), 0.5 mg of antigen constituted by bovine serum albumin (BSA) with 0.1 mg or without the tested substance in an isotonic saline solution. This high dose of antigen, because it is situated at the limit of the paralyzing dose with respect to the immunitary response, results, for this reason, in a weak or zero response to the antigen only in the controls: It constitutes therefore a severe criterien to establish the activity of an adjuvant substance. Thirty days later, the mice received, by the same administrative route, a booster containing 0.1 mg of the same antigen.
The antibody level was determined, six days after the booster, by passive hemagglutination using sheep's red blood corpuscles treated with formalin and covered with the antigen studied according to the method described by A. A. HIRATA and M. W. BRANDISS (J. Immunol., 100, 641-648, 1968).
The antibody titer, represented by the maximum serum dilution agglutinating a given amount of sheep corpuscles, reaches a maximum at the 36th day and is established in the following manner: […]

Klebsiella pneumoniae = test: Anti-infectious activity with respect to Klebsiella; type: in vivo; details: mice, i.v. treatment 24h before 2 × 10^4 bacteria i.m.
Protocol: The survival of groups of inoculated mice under the above conditions and treated by means of the products according to the invention was followed.
The infecting dose was 2.10^4 Klebsiella; it was administered by the intramuscular route.
The administration of the tested product was carried out by the intravenous route in 0.2 ml of apyrogenic physiological solution, the controls receiving the solution alone. It was carried out 24 hours before the inoculation.
The percentage protection indicated is a difference of the percentages of survivors of the treated group with respect to the control group.

[2] = Toxicity (lethal dose 50) by parenteral administration in the adrenalectomised mouse; type: in vivo, mice
Protocol: The toxicity of the products according to the invention was investigated by parenteral administration in mice. It was observed that the toxic doses were of an order of magnitude very much higher than that of the doses at which these products manifest their activity. Thus the lethal dose 50 of the products according to the invention tested was higher than 5 mg/kg of animal in the adrenalectomised mouse, whose sensitivity to endotoxins is well-known.

Ovalbumin = test: Adjuvant character in emulsion (delayed hypersensitivity and antibodies); type: in vivo, Hartley guinea pigs; details: guinea pigs, 50 μg in AlF emulsion with 1 mg ovalbumin; for Log2 of the hemagglutinating titer: serum day 21; for HSR (diameter of the delayed hypersensitivity reaction): skin test day 18, read 48 hours later
Protocol: The tests were carried out on batches of 6 male Hartley guinea pigs of 350 g. The administration was done by intradermal injection into the plantar pad of each of the rear paws. Ovalbumin (constituting the antigen) in the amount of 1 mg is prepared in 0.1 ml of an emulsion of saline isotonic solution, in any oily phase constituted either by the Freund imcomplete adjuvant (FIA), or by the complete adjuvant (FCA) formed by the FIA to which is added 0.1 mg of whole Mycobacterium smegmatis cells. The compound according to the invention was administered in the amount of 0.05 mg added in the emulsion containing the FIA.
Eighteen days after this immunization, possible delayed hypersensitivity reactions to the antigen were sought by injecting by the intradermal route 0.01 mg of ovalbumin in the side of the animals, and 48 hours later, the reaction of the point of injection was observed. The diameter in millimeters of the reaction thus caused was measured.
Twenty-one days after the injection, the animals were bled. […]

[3] = system: Limulus amoebocyte lysate; test: Limulus test (endotoxic type activity); details: gel formation after 20 minutes at 37° C.
Protocol: For this purpose, 0.1 ml of the Limulus amoebocyte lysate preparation (marketed by the MALLINCKRODT Company, at St. LOUIS, U.S.A.) was mixed with an equal volume of the tested product at various concentrations in solution in apyrogenic distilled water. The vessels used were also made apyrogenic by dry heating in the oven, at 180° C., for 2 hours.
After incubating the mixture for 20 minutes at 37° C. in tubes, the formation of gel characteristics of the presence of endotoxin was estimated.

Listeria monocytogenes = test: Anti-infectious activity with respect to Listeria; type: in vivo; details: mice, i.v., 1 day before infection

Compound | Log2 hemagglutinating titer [1] | % of protection (Klebsiella pneumoniae; dose per mouse 100) [%] | Number of survivors at day 3 (Klebsiella pneumoniae; dose per mouse 100) | Number of survivors at day 5 (Klebsiella pneumoniae; dose per mouse 100) | Number of survivors at day 8 (Klebsiella pneumoniae; dose per mouse 100) | lethal dose 50 [2] | Log2 of the hemagglutinating titer (Ovalbumin) | HSR (diameter of the delayed hypersensitivity reaction) (Ovalbumin) [millimeters] | also measured
CC(=O)N[C@H]1C(O)O[C@H](CO)[C@@H](O)[C@@H]1O[C@H](C)C(=O)N[C@@H](C)C(=O)N[C@H](CCC(=O)N[C@@H](C)C(=O)OCc1ccccc1)C(N)=O (stereo partly drawn) [MDP--L--Ala--benzyl--ester, Benzyl ester of N-acetyl-muramyl-L-alanyl-D-isoglutaminyl-L-alanine] | 7.47 ± 0.89 | 46 | 24 | 14 | 14 | higher than 5 mg/kg | 12.31 ± 0.82 | 12.5 ± 3.5 | –
CCCCOC(=O)[C@H](C)NC(=O)CC[C@@H](NC(=O)[C@H](C)NC(=O)[C@@H](C)O[C@H]1[C@H](O)[C@@H](CO)OC(O)[C@@H]1NC(C)=O)C(N)=O (stereo partly drawn) [MDP--L--Ala--butyl--ester, n-butyl ester of N-acetyl-muramyl-L-alanyl-D-isoglutaminyl-L-alanine] | 10.31 ± 0.49 | 54 | 23 | 18 | 17 | – | 13.31 ± 0.52 | 18 ± 2 | –
CCCCCCCCCCNC(=O)[C@H](C)NC(=O)CC[C@@H](NC(=O)[C@H](C)NC(=O)[C@@H](C)O[C@H]1[C@H](O)[C@@H](CO)OC(O)[C@@H]1NC(C)=O)C(N)=O (stereo partly drawn) [MDP--L--Ala--decyl--amide, Decylamide of N-acetyl-muramyl-L-alanyl-D-isoglutamine-L-alanine] | 8.64 ± 0.95 | 50 | 21 | 17 | 16 | higher than 5 mg/kg | – | – | Limulus test result (concentration of the tested product) [3]: 100 µg/mL
CCCCCCCCCCOC(=O)[C@H](C)NC(=O)CC[C@@H](NC(=O)[C@H](C)NC(=O)[C@@H](C)O[C@H]1[C@H](O)[C@@H](CO)OC(O)[C@@H]1NC(C)=O)C(N)=O (stereo partly drawn) [MDP--L--Ala--decyl--ester, Decyl ester of N-acetyl-muramyl-L-alanyl-D-isoglutaminyl-L-alanine] | 6.23 ± 1.23 | 44 | 30 | 22 | 22 | – | – | – | % of protection (Listeria monocytogenes; 10 μg per mouse): 50%; Number of surviving animals at day 5 (Listeria monocytogenes; 10 μg per mouse): 7; Number of surviving animals at day 10 (Listeria monocytogenes; 10 μg per mouse): 5; % of protection (Listeria monocytogenes; 100 μg per mouse): 38%; Number of surviving animals at day 5 (Listeria monocytogenes; 100 μg per mouse): 19; Number of surviving animals at day 10 (Listeria monocytogenes; 100 μg per mouse): 11; % of protection (Listeria monocytogenes; 300 μg per mouse): 23%; Number of surviving animals at day 5 (Listeria monocytogenes; 300 μg per mouse): 11; Number of surviving animals at day 10 (Listeria monocytogenes; 300 μg per mouse): 5; Limulus test result (concentration of the tested product) [3]: 100 µg/mL
CCCCCCCCCCCCCCCOC(=O)[C@H](C)NC(=O)CC[C@@H](NC(=O)[C@H](C)NC(=O)[C@@H](C)O[C@H]1[C@H](O)[C@@H](CO)OC(O)[C@@H]1NC(C)=O)C(N)=O (stereo partly drawn) [MDP--L--Ala--penta--decyl--ester, Pentadecyl ester of N-acetyl-muramyl-L-alanyl-D-isoglutaminyl-L-alanine] | 8.39 ± 0.89 | 50 | 24 | 16 | 15 | – | 10.97 ± 1.04 | 5 | –
CCCCCCCCCCOC(=O)[C@H](CCCCN)NC(=O)CC[C@@H](NC(=O)[C@H](C)NC(=O)[C@@H](C)O[C@H]1[C@H](O)[C@@H](CO)OC(O)[C@@H]1NC(C)=O)C(N)=O (stereo partly drawn) [MDP--L--Lys--decyl--ester, Decyl ester of N-acetyl-muramyl-L-alanyl-D-isoglutaminyl-L-lysine] | 9.64 ± 0.70 | 71 | 22 | 20 | 20 | higher than 5 mg/kg | – | – | –
CCCCCCCCCCOC(=O)CC[C@@H](NC(=O)[C@H](C)NC(=O)[C@@H](C)O[C@H]1[C@H](O)[C@@H](CO)OC(O)[C@@H]1NC(C)=O)C(N)=O (stereo partly drawn) [MDP--decyl--ester, Decyl ester of N-acetyl-muramyl-L-alanyl-D-isoglutamine] | 8.64 ± 1.31 | 75 | 24 | 21 | 21 | higher than 5 mg/kg | – | – | Number of survivors at day 3 (Klebsiella pneumoniae; dose per mouse 10): 1; Number of survivors at day 5 (Klebsiella pneumoniae; dose per mouse 10): 0; Number of survivors at day 8 (Klebsiella pneumoniae; dose per mouse 10): 0
CCCCOC(=O)CC[C@@H](NC(=O)[C@H](C)NC(=O)[C@@H](C)O[C@H]1[C@H](O)[C@@H](CO)OC(O)[C@@H]1NC(C)=O)C(=O)OC (stereo partly drawn) [MDPA(butyl--ester)OCH3, α-methyl, γ-n-butyl N-acetyl-muramyl-L-alanyl-D-glutamic diester] | – | 38 | 12 | 11 | 9 | – | – | – | –
CCCCCCCCCCOC(=O)CC[C@@H](NC(=O)[C@H](C)NC(=O)[C@@H](C)O[C@H]1[C@H](O)[C@@H](CO)OC(O)[C@@H]1NC(C)=O)C(=O)OC (stereo partly drawn) [MDPA(decyl--ester)OCH3, α-methyl, γ-decyl N-acetyl-muramyl-L-alanyl-D-glutamic diester] | – | 44 | 13 | 11 | 10 | – | – | – | –
